Here are results for two substances from patent US8137700B2, “Main chain acid-degradable polymers for the delivery of bioactive materials” (U.S. Department of Energy, priority 2006, dated 2012).

In this test the test system is LacZ B3Z hybridoma. Nature of the test: LacZ MHC Class I antigen presentation assay. Type of test: cell-based. Here is the method: In one embodiment, particles prepared from these acid degradable epolymer backbones are designed to release their bioactive material payload into the cytoplasm of cells upon lysosomal destabilization. Higher loading capacity of the particles may also lead to greater antigen presentation of the encapsulated bioactive material. In the antigen presentation assay described by Sanderson, S.; Shastri, N. in Inter. Immun. 1994, 6, 369-376, the β-galactosidase activity of B3Z T cells is measured. Antigen presenting cells display the peptide having the sequence, […] (SEQ ID NO: 8), upon phagocytosis of ovalbumin. These cells are engineered to transcribe β-galactosidase when in the presence of antigen presenting cells displaying the […] peptide (SEQ ID NO: 8). β-galactosidase then liberates chlorophenol red from the chlorophenol red βgalactoside that is present in solution. Absorbance of chlorophenol red is measured by UV absorbance at 595 nm. Therefore this assay can be used as a measurement of the amount of bioactive material delivered into the cytoplasm of cells by the microgel particles of the invention by measuring the amount of liberated chlorophenol red by UV absorbance at 595 nm.
The LacZ MHC Class I antigen presentation assay, as described by the antigen Sanderson, S.; Shastri, N. in Inter. Immun. 1994, 6, 369-376, is performed with degradable polymer particles made according to Example 7 with the degradable polymers in Example 1 and 3 to test their ability to deliver proteins into APCs for Class I antigen presentation. This experiment uses the LacZ B3Z hybridoma, which is a CTL that recognizes the peptide sequence, […] (SEQ ID NO: 8), from ovalbumin, complexed with the MHC Class I molecule H-2 K^b. This hybridoma produces P-galactosidase after encountering APCs that present […] as a Class I antigen, thus allowing Class I antigen presentation to be quantified by measuring β-galactosidase activity.
A maximum absorbance of 0.25 is observed with the […] peptide (SEQ ID NO: 8), which results in 100% T-cell activation. At about 0.4 mg of particle/mL, degradable particles made as in Examples 1, should show an absorbance close to that of 0.25 at which 100% T-cell activation occurs.

As for SIINFEKL, the T-cell activation (at maximum absorbance) is recorded as 100%. The same substance showed a maximum absorbance (chlorophenol red, 595 nm) of 0.25.
With “free ovalbumin: free ovalbumin protein, comparator”, for the setting “1 mg/ml of free ovalbumin”, the “U.V. absorbance resulting from activation” value came out at 0.037. The “activation of CTLs by APCs” value (APCs incubated with the substance) is on record as “not able to activate CTLs”.
